One data set deals with T1, full-length WT TPH1 (Homo sapiens, UniProt P17752).
T1 construct: made in house
T1 sequence (P17752 1-444): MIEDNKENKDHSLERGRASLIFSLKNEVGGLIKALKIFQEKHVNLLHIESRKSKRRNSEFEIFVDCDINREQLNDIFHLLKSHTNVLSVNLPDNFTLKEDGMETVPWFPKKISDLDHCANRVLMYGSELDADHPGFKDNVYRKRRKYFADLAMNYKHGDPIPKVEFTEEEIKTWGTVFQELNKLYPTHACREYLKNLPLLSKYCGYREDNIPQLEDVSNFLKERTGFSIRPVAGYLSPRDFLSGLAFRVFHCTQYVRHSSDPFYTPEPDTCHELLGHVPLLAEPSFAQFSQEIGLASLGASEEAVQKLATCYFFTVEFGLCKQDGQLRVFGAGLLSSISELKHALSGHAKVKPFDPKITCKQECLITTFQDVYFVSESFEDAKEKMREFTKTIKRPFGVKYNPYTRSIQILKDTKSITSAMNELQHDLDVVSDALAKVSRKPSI
Put plainly: Tryptophan hydroxylase enzymatic activity assay, full-length WT TPH1. It is filed as biochemical. To be noted: (95% confidence interval). From the text:
The […] human TPH1 gene was cloned into the pET23a vector (six-His C-terminal fusion; Merck KGaA, Darmstadt, Germany) between the NdeI and XhoI restriction sites, and expressed and purified as described previously ([Wang et al., 2002]; [Betari et al., 2020]). Truncated TPH1 was used since the full-length enzyme tends to aggregate in bacteria and yeast extracts and during purification ([Wang et al., 2002]; [McKinney et al., 2005]), resulting in a much lower protein yield compared to the truncated version. Enzymatic activity of truncated TPH1 is equal to that of the full-length protein ([Betari et al., 2020]). […] Full-length WT TPH1 and TPH2 were expressed as N-terminal six-His-maltose-binding protein fusion proteins in pETM-41 and were cleaved and purified as described previously ([McKinney et al., 2004]; [Winge et al., 2007]). Human WT PAH and TH were expressed and isolated as described previously ([[…] et al., 2012]; [Bezem et al., 2016]). […] Control experiments were performed in the presence of 1% DMSO in the absence of ligand. […] 5-hydroxy tryptophan (5-OH-Trp) was quantified using High Performance Liquid Chromatography (HPLC) essentially as described previously with minor modifications ([McKinney et al., 2004]; [[…] et al., 2020]).

On the set-up of data set [1]: method as in Wu and Delamere, 1997. To be noted: dissociation of the protonated pyridine nitrogen; ref Wu and Delamere, 1997; cited from earlier work.

Molecules are shown by their SMILES.

The IC50 is the concentration that gives 50% inhibition. A high value points to lower potency. The pKa is the negative logarithm of the acid dissociation constant. Take `COc1ccc2[nH]c([S+]([O-])Cc3ncc(C)c(OC)c3C)nc2c1` (centres unmarked) [Omeprazole]: the IC50 against full-length WT TPH1 was 3.55 µM. Besides, in data set [1], the pKa was 7.1.

The record behind these values is PMC7726444 (Frontiers in Pharmacology, 2020).
